The source of these data is patent US20220313708A1, “COMBINATION PRODUCT CONTAINING LIMONOID COMPOUND AND SGLT-2 INHIBITOR” (ZHEJIANG YANGSHENGTANG INSTITUTE OF NATURAL MEDICATION CO., …, priority 2019, published 2022).

In the experiment the test system is mouse type II diabetes model with pancreatic islet damage and obesity. The experiment is described as follows: Blood glucose in mouse type II diabetes model with pancreatic islet damage and obesity (STZ + high-fat diet, Example 5, tofogliflozin). The experiment is classed as in vivo. The note with it: STZ + high-fat diet ICR mice; single agent 0.5 g/kg per day by gavage, two weeks; 1 h after last administration; mean ± SD. The text has this:
In this example, a mouse model of type II diabetes with pancreatic islet damage and obesity was established by multiple modeling ICR mice with a small dose of streptozotocin (STZ), following with continuous high-fat diets (referring to literature: Zhang Jiyuan et al, Study on the effect of three plant extracts on improving glucose and lipid metabolism in type 2 diabetic mice, Food and Machinery, 2016, 32 (12): 142-147). […]
Experimental grouping: 15 male mice were randomly selected as the normal control group, and the remaining mice were subjected to a high-fat diet (high-fat diet formula: cholesterol 1%, egg yolk powder 10%, lard oil 10%, and basic feed 79%, for establishing an obesity mouse model) for consecutive 4 weeks and intraperitoneal injection of STZ at a dose of 35 mg/kg for three consecutive days. After one week, the mice were subject to 24 hours of fasting and water deprivation, their fasting blood glucose was measured, and the mice with a blood glucose level of 15 to 25 mmol/L were selected and undifferentiatedly grouped and used in the experiment, continuously subjected to the high-fat diet, 15 mice in each group, and subjected to blood sampling and detection of indicators after 2 weeks of administration. […]

For `CCc1ccc(Cc2ccc3c(c2)[C@]2(OC3)O[C@H](CO)[C@@H](O)[C@H](O)[C@H]2O)cc1` [Tofogliflozin, tofogliflozin], the Blood glucose value is on record as 10.1 ± 2.7 mmol/L.
